The values below come from US20240368173A1, “TRICYCLIC GPR65 MODULATORS” (PATHIOS THERAPEUTICS LIMITED, priority 2021, published 2024).

The structures appear in SMILES notation. Where only a bound is given, the exact number is not on record here.

What is called IC50 is the point on the concentration scale where inhibition reaches its midpoint.

For one experiment, the target named is human recombinant GPR65 (Homo sapiens, UniProt Q8IYL9). The experiment is described as follows: Human GPR65 cAMP HTRF antagonist assay. The experiment is classed as cell-based.
Chain of human recombinant GPR65 (Q8IYL9 whole entry): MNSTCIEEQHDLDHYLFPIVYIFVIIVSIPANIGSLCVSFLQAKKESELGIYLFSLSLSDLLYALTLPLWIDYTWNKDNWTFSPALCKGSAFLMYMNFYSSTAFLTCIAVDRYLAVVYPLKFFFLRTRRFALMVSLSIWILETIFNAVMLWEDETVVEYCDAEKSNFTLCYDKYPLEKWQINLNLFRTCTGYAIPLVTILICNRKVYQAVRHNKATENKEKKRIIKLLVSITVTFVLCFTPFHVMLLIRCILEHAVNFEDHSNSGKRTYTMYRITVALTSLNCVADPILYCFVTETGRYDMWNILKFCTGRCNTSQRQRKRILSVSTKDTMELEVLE
Details: not given
In outline: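 Antagonism measured as suppression of the cAMP rise when pH is dropped to 7.2 (control wells pH 7.9) in 1321N1 cells stably carrying human GPR65. Cells in KRH with 1 mM IBMX and 200 μM EDTA saw compound 30 min, then acid stimulation 30 min; HTRF cAMP detection, normalised, 4-parameter logistic IC50.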
A general note: In TR-FRET formats the signal depends on donor and acceptor labels being close together.
As to `COc1ccc(-c2cc(F)c(NC(=O)N3[C@H]4CC[C@@H]3c3n[nH]c(=O)cc3C4)cc2Cl)nc1` [Compound 211, (6S,9R)-N-(5-Chloro-2-fluoro-4-(5-methoxypyridin-2-yl)phenyl)-3-oxo-3,5,6,7,8,9-hexahydro-2H-6,9-epiminocyclohepta[c]pyridazine-10-carboxamide], the IC50 is less than 500 nM.

For `O=C(Nc1cc(Cl)c(-c2cnn(-c3ccncc3)c2)cc1F)N1[C@H]2CC[C@@H]1c1n[nH]c(=O)cc1C2` [Compound 145, (6S,9R)-N-(5-Chloro-2-fluoro-4-(1-(pyridin-4-yl)-1H-pyrazol-4-yl)phenyl)-3-oxo-3,5,6,7,8,9-hexahydro-2H-6,9-epiminocyclohepta[c]pyridazine-10-carboxamide], the half-inhibitory concentration (IC50) is less than 500 nM.

`CS(=O)(=O)c1ccc(-c2cc(F)c(NC(=O)N3[C@H]4CC[C@@H]3c3n[nH]c(=O)cc3C4)cc2Cl)cc1` [Compound 131, (6S,9R)-N-(2-Chloro-5-fluoro-4′-(methylsulfonyl)-[1,1′-biphenyl]-4-yl)-3-oxo-3,5,6,7,8,9-hexahydro-2H-6,9-epiminocyclohepta[c]pyridazine-10-carboxamide]: the concentration for half-maximal inhibition (IC50) was less than 500 nM.

For `O=C(Nc1cc(Cl)c(Br)cc1F)N1C2CCC1c1n[nH]c(=O)cc1C2` (racemic) [Compound 8, (±)-N-(4-Bromo-5-chloro-2-fluorophenyl)-3-oxo-3,5,6,7,8,9-hexahydro-2H-6,9-epiminocyclohepta[c]pyridazine-10-carboxamide], the IC50 was less than 500 nM.

With `O=C(Nc1cc(Cl)c(Oc2ccc3nonc3c2)cc1F)N1[C@H]2CC[C@@H]1c1n[nH]c(=O)cc1C2` [Compound 294, (6S,9R)-N-(4-(Benzo[c][1,2,5]oxadiazol-5-yloxy)-5-chloro-2-fluorophenyl)-3-oxo-3,5,6,7,8,9-hexahydro-2H-6,9-epiminocyclohepta[c]pyridazine-10-carboxamide], the IC50 is less than 500 nM.

Turning to `O=C(Nc1cc(Cl)c(-c2ccccc2)cc1F)N1[C@H]2CC[C@@H]1c1n[nH]c(=O)cc1C2` [Compound 113, (6S,9R)-N-(2-Chloro-5-fluoro-[1,1′-biphenyl]-4-yl)-3-oxo-3,5,6,7,8,9-hexahydro-2H-6,9-epiminocyclohepta[c]pyridazine-10-carboxamide], the IC50 is less than 500 nM.

Turning to `O=C(Nc1cc(-c2ccc3nonc3c2)c(C(F)(F)F)cc1F)N1[C@H]2CC[C@@H]1c1c[nH]c(=O)cc1C2` [Compound 259, (6S,9R)-N-(5-(Benzo[c][1,2,5]oxadiazol-5-yl)-2-fluoro-4-(trifluoromethyl)phenyl)-3-oxo-3,5,6,7,8,9-hexahydro-2H-6,9-epiminocyclohepta[c]pyridine-10-carboxamide], the IC50 is less than 500 nM.

Consider `COc1ccc(-c2cc(F)c(NC(=O)N3[C@H]4CC[C@@H]3c3n[nH]c(=O)cc3C4)cc2Cl)c(F)n1` [Compound 202, (6S,9R)-N-(5-Chloro-2-fluoro-4-(2-fluoro-6-methoxypyridin-3-yl)phenyl)-3-oxo-3,5,6,7,8,9-hexahydro-2H-6,9-epiminocyclohepta[c]pyridazine-10-carboxamide], for which the IC50 is less than 500 nM.

`O=C(Nc1cc(Cl)c(-c2cnc3nonc3c2)cc1F)N1[C@H]2CC[C@@H]1c1ccnc(F)c1C2` [Compound 190, (5R,8S)-N-(4-([1,2,5]Oxadiazolo[3,4-b]pyridin-6-yl)-5-chloro-2-fluorophenyl)-1-fluoro-6,7,8,9-tetrahydro-5H-5,8-epiminocyclohepta[c]pyridine-10-carboxamide]: the IC50 is less than 500 nM.

Consider `COCc1ccc(-c2cc(F)c(NC(=O)N3[C@H]4CC[C@@H]3c3n[nH]c(=O)cc3C4)cc2Cl)cn1` [Compound 278, (6S,9R)-N-(5-Chloro-2-fluoro-4-(6-(methoxymethyl)pyridin-3-yl)phenyl)-3-oxo-3,5,6,7,8,9-hexahydro-2H-6,9-epiminocyclohepta[c]pyridazine-10-carboxamide], for which the IC50 is less than 500 nM.

For the compound `O=C(Nc1ccc(Cl)c(Br)c1)N1C2CCC1c1n[nH]c(=O)cc1C2` (racemic) [Compound 5, (±)-N-(3-Bromo-4-chlorophenyl)-3-oxo-3,5,6,7,8,9-hexahydro-2H-6,9-epiminocyclohepta[c]pyridazine-10-carboxamide], the IC50 was less than 500 nM.

Regarding `O=C(Nc1ccc(Br)c(C(F)(F)F)c1)N1[C@H]2CC[C@@H]1c1n[nH]c(=O)cc1C2` [Compound 47, (6S,9R)-N-(4-Bromo-3-(trifluoromethyl)phenyl)-3-oxo-3,5,6,7,8,9-hexahydro-2H-6,9-epiminocyclohepta[c]pyridazine-10-carboxamide], the IC50 was less than 500 nM.

Consider `O=C(Nc1cc(-c2cncc(F)c2)c(C(F)(F)F)cc1F)N1[C@H]2CC[C@@H]1c1c[nH]c(=O)cc1C2` [Compound 255, (6S,9R)-N-(2-Fluoro-5-(5-fluoropyridin-3-yl)-4-(trifluoromethyl)phenyl)-3-oxo-3,5,6,7,8,9-hexahydro-2H-6,9-epiminocyclohepta[c]pyridine-10-carboxamide], for which the 50% inhibitory concentration (IC50) is less than 500 nM.

As for `O=C(Nc1cc(Cl)c(-c2ccnc(OCC(F)(F)F)c2)cc1F)N1[C@H]2CC[C@@H]1c1c[nH]c(=O)cc1C2` [Compound 309, (6S,9R)-N-(5-Chloro-2-fluoro-4-(2-(2,2,2-trifluoroethoxy)pyridin-4-yl)phenyl)-3-oxo-3,5,6,7,8,9-hexahydro-2H-6,9-epiminocyclohepta[c]pyridine-10-carboxamide], the IC50 is less than 500 nM.

On to `CO[C@H]1C[C@@H](Oc2ccc(-c3cc(F)c(NC(=O)N4[C@H]5CC[C@@H]4c4n[nH]c(=O)cc4C5)cc3Cl)cn2)C1` [Compound 304, (6S,9R)-N-(5-Chloro-2-fluoro-4-(6-((1s,3S)-3-methoxycyclobutoxy)pyridin-3-yl)phenyl)-3-oxo-3,5,6,7,8,9-hexahydro-2H-6,9-epiminocyclohepta[c]pyridazine-10-carboxamide], for which the IC50 was less than 500 nM.

Consider `COc1ccc(-c2cc(F)c(NC(=O)N3[C@H]4CC[C@@H]3c3n[nH]c(=O)cc3C4)cc2C(F)(F)F)cn1` [Compound 213, (6S,9R)-N-(2-Fluoro-4-(6-methoxypyridin-3-yl)-5-(trifluoromethyl)phenyl)-3-oxo-3,5,6,7,8,9-hexahydro-2H-6,9-epiminocyclohepta[c]pyridazine-10-carboxamide], for which the IC50 is less than 500 nM.

Regarding `O=C(Nc1cc(Cl)c(C(F)(F)F)cc1F)N1[C@H]2CC[C@@H]1c1n[nH]c(=O)cc1C2` [Compound 18, (6S,9R)-N-(5-Chloro-2-fluoro-4-(trifluoromethyl)phenyl)-3-oxo-3,5,6,7,8,9-hexahydro-2H-6,9-epiminocyclohepta[c]pyridazine-10-carboxamide], the IC50 is less than 500 nM.

With `O=C(Nc1cc(Cl)c(-c2ccc(F)nc2)cn1)N1[C@H]2CC[C@@H]1c1n[nH]c(=O)cc1C2` [Compound 230, (6S,9R)-N-(4-Chloro-6′-fluoro-[3,3′-bipyridin]-6-yl)-3-oxo-3,5,6,7,8,9-hexahydro-2H-6,9-epiminocyclohepta[c]pyridazine-10-carboxamide], the IC50 was less than 500 nM.

The same experiment, now with this note: 1321N1-hrGPR65 cells, cAMP HTRF, assay pH 7.2; read-out: hGPR65 IC50 (Activity of selected compounds according to the invention).
Turning to `O=C(Nc1cc(Cl)c(-c2cncc(CO)c2)cc1F)N1[C@H]2CC[C@@H]1c1n[nH]c(=O)cc1C2` [Compound 128, (6S,9R)—N-(5-Chloro-2-fluoro-4-(5-(hydroxymethyl)pyridin-3-yl)phenyl)-3-oxo-3,5,6,7,8,9-hexahydro-2H-6,9-epiminocyclohepta[c]pyridazine-10-carboxamide], the IC50 was in the range of 500 to 5000 nM.
